# In US10206906B2, “Synergistic combination of a phenolic-rich maple syrup extract and an antibiotic” (priority 2015, dated 2019):
# Where two headings read alike, the source gives them in different places.
# How the values were obtained:
# [1] = system: cell membrane of P. aeruginosa PAO1; assay: BacLight membrane integrity assay; format: cell-based, Pseudomonas aeruginosa; conditions: PRMSE, catechol at 4 × MIC for 10 min; CTAB 10 μM; untreated = 100
# Procedure: (§1) The BacLight kit (L-13152, Invitrogen™, Life Technologies Inc., Canada) is used to assess cell membrane damage. Overnight bacterial cultures are diluted 1:40 in fresh MHBII broth to a final volume of 5 mL, grown to an OD600 of 0.5-0.6, washed with filter-sterilized 10 mM phosphate buffered saline (PBS, pH 7.0) and resuspended in 1/10 of the original volume. […] Cultures are incubated at room temperature (21±2° C.) on a tube rocker for 10 min. At the end of the incubation period, an aliquot is taken for CFU counts and the remaining suspension is washed with 10 mM PBS and resuspended to an OD600) of 0.3. An aliquot (100 μL) of each bacterial suspension is removed and added to a 96-well, black, clear-bottom plate (Corning™, Fisher Scientific, ON, Canada) along with an equal volume of the BacLight™ reagent (2× stock solution, L13152, Invitrogen™, Life Technologies Inc., Canada) and the plates are incubated for 10 min at room temperature in the dark. At the end of the incubation period, fluorescence intensity is recorded for both kit components, SYTO-9 (ex/em 485/530 nm) and propidium iodide (ex/em 485/645 nm), using the microplate reader. Fluorescence readings from samples are normalized to the values obtained from untreated control to determine the ratio of membrane compromised cells to cells with intact membrane. Cetyltrimethylammonium bromide (CTAB, Sigma-Aldrich Canada), a cationic detergent that is known to cause membrane damage, is used at concentration of 10 μM as a positive control for membrane disruption.
# [2] = system: cell membrane of P. aeruginosa PA14; assay: BacLight membrane integrity assay; format: cell-based, Pseudomonas aeruginosa; conditions: PRMSE, catechol at 4 × MIC for 10 min; CTAB 10 μM; untreated = 100
# Procedure: as §1
# E. coli CFT073 [3] = assay: Bacterial colony forming ability (CFU counts after exposure); format: cell-based, Escherichia coli; conditions: log decrease vs untreated control; 4 × MIC, 10 min; CTAB 10 μM
# Procedure: as §1
# [4] = system: cell membrane of P. mirabilis HI4320; assay: BacLight membrane integrity assay; format: cell-based, Proteus mirabilis; conditions: PRMSE, catechol at 4 × MIC for 10 min; CTAB 10 μM; untreated = 100
# Procedure: as §1, with “Cetyltrimethylammonium bromide (CTAB, Sigma-Aldrich Canada), a cationic detergent that is known to cause membrane damage, is used at concentration of 10 μM as a positive control for membrane disruption.” left out
# P. aeruginosa PAO1 [5] = assay: Bacterial colony forming ability (CFU counts after exposure); format: cell-based, Pseudomonas aeruginosa; conditions: log decrease vs untreated control; 4 × MIC, 10 min; CTAB 10 μM
# Procedure: as §1
# P. aeruginosa PA14 [6] = assay: as above; format: cell-based, Pseudomonas aeruginosa; conditions: log decrease vs untreated control; 4 × MIC, 10 min; CTAB 10 μM
# Procedure: as §1
# [7] = system: cell membrane of E. coli CFT073; assay: BacLight membrane integrity assay; format: cell-based, Escherichia coli; conditions: PRMSE, catechol at 4 × MIC for 10 min; CTAB 10 μM; untreated = 100
# Procedure: as §1, with “Cetyltrimethylammonium bromide (CTAB, Sigma-Aldrich Canada), a cationic detergent that is known to cause membrane damage, is used at concentration of 10 μM as a positive control for membrane disruption.” left out
# P. mirabilis HI4320 [8] = assay: Bacterial colony forming ability (CFU counts after exposure); format: cell-based, Proteus mirabilis; conditions: log decrease vs untreated control; 4 × MIC, 10 min; CTAB 10 μM
# Procedure: as §1
# P. aeruginosa PAO1 [9] = assay: Determination of minimum inhibitory concentration (MIC); format: cell-based; conditions: Pseudomonas aeruginosa, read-out: MIC
# Procedure: (§2) A range of concentration of antibiotics, ciprofloxacin (0.0003-0.25 μg mL^−1) and carbenicillin (0.5-512 μg mL^−1), are chosen due to their known potency against all four bacterial strains. Dilutions are prepared in flat bottom, 96 well microtitre plates (Falcon™, Corning™, Fisher Scientific, ON, Canada). Each well of a microtitre plate is then inoculated with the desired bacterial strain (grown in MHB-II and diluted to […]) and the plate is incubated at 37° C. for 18 h under static conditions. Bacterial growth is assessed by (i) monitoring the optical density of the cell suspension in each well at 600 nm (OD600 nm), and (ii) the resazurin microtitre plate assay. In the resazurin microtitre plate assay, each well of a microtitre plate is supplemented with 20 μM resazurin, incubated in the dark for 20 min at room temperature, followed by fluorescence measurements at ex/em 570/590 nm using a TECAN Infinite M200 Pro microplate reader (Tecan Group Ltd., Switzerland). The lowest concentration of a compound able to prevent increase in OD600 nm and resazurin fluorescence intensity is recorded as the MIC for that compound.
# P. aeruginosa PA14 [10] = assay: as above; format: cell-based; conditions: Pseudomonas aeruginosa, read-out: MIC
# Procedure: as §2
# P. aeruginosa PAO1 [11] = assay: Checkerboard microdilution assay (growth inhibition synergy); format: cell-based, Pseudomonas aeruginosa
# Procedure: (§3) The checkerboard microdilution assay is used for evaluation of in vitro antimicrobial synergy between two compounds (i.e., antibiotic/PRMSE, antibiotic/pure phenolic compound, and pure phenolic compounds with each other). Two-fold serial dilutions are prepared in MHB-II for each of the two compounds under study. The serial dilutions are then loaded into 96 well plates to achieve combinations having different concentrations of each of the two compounds. Each well is subsequently inoculated with 10^6 CFU mL^−1 of the desired bacterial strain and incubated at 37° C. for 18 h under static conditions. The Fractional Inhibitory Concentration Index (FICI) for each combination is calculated by using the following formula: FICcomponent 1=MICcomponent 1, in combination/MICcomponent 1,alone FICI=FICcomponent 1+FICcomponent 2
# (§4) The FICIs are interpreted as follows: FICI of […] (synergy); 0.5<FICI ≤1 (no interaction/indifference); FICI of >4 (antagonism).
# P. aeruginosa PA14 [12] = assay: as above; format: cell-based, Pseudomonas aeruginosa
# Procedure: as §3, §4
# E. coli CFT073 [13] = assay: Determination of minimum inhibitory concentration (MIC); format: cell-based; conditions: Escherichia coli, CFT073, 18 h; read-out: MIC
# Procedure: as §2
# P. mirabilis HI4320 [14] = assay: as above; format: cell-based; conditions: Proteus mirabilis, HI4320, 18 h; read-out: MIC
# Procedure: as §2
# P. mirabilis HI4320 [15] = assay: Checkerboard microdilution assay (growth inhibition synergy); format: cell-based, Proteus mirabilis
# Procedure: as §3, §4
# E. coli CFT073 [16] = assay: as above; format: cell-based, Escherichia coli
# Procedure: as §3, §4
# [17] = carbenicillin/PRMSE combination, FIC of the labelled component
# [18] = ciprofloxacin in combination with the labelled phenolic constituent
# [19] = labelled constituent + catechol, * = synergistic
# [20] = labelled constituent + gallic acid, * = synergistic
# [21] = labelled constituent combined with catechol
# [22] = labelled constituent combined with gallic acid
# [23] = labelled phenolic constituent + ciprofloxacin, * = synergistic interaction
# [24] = labelled phenolic constituent in combination with ciprofloxacin
smiles,measurement,setting,value
"CCCCCCCCCCCCCCCC[N+](C)(C)C.[Br-] [CTAB, cetyltrimethyl-ammonium bromide, reference compound]",% cells with uncompromised membrane,[1],0%
same,% cells with uncompromised membrane,[2],0%
same,Bacterial colony forming ability (Δ log CFU mL^−1),E. coli CFT073 [3],5.7 Δ log CFU mL^−1
same,% cells with uncompromised membrane,[4],0%
same,Bacterial colony forming ability (Δ log CFU mL^−1),P. aeruginosa PAO1 [5],5.1 Δ log CFU mL^−1
same,Bacterial colony forming ability (Δ log CFU mL^−1),P. aeruginosa PA14 [6],4.9 Δ log CFU mL^−1
same,% cells with uncompromised membrane (BacLight assay),[7],0%
same,Bacterial colony forming ability (Δ log CFU mL^−1),P. mirabilis HI4320 [8],4.5 Δ log CFU mL^−1
"CC1(C)S[C@@H]2[C@H](NC(=O)C(C(=O)O)c3ccccc3)C(=O)N2[C@H]1C(=O)O (some centres unmarked) [carbenicillin, reference compound]",MIC,"P. aeruginosa PAO1 [9]; PAO1, antibiotic alone, MHB-II, 37° C., 18 h",64 µg/mL
same,MIC,"P. aeruginosa PA14 [10]; PA14, antibiotic alone, MHB-II, 37° C., 18 h",128 µg/mL
same,FIC,P. aeruginosa PAO1 [11]; [17],0.13
same,FIC,P. aeruginosa PA14 [12]; [17],0.063
"O=Cc1ccc(O)c(O)c1 [catechaldehyde, 3,4-dihydroxybenzaldehyde]",MIC,E. coli CFT073 [13],1250 µg/mL
same,MIC,"P. aeruginosa PAO1 [9]; PAO1, 18 h",1250 µg/mL
same,MIC,P. mirabilis HI4320 [14],1250 µg/mL
same,MIC,"P. aeruginosa PA14 [10]; PA14, 18 h",1250 µg/mL
same,FIC of ciprofloxacin,P. mirabilis HI4320 [15]; [18],0.5
same,"FICI, catechol",P. mirabilis HI4320 [15]; [19],0.5*
same,"FICI, gallic acid",P. mirabilis HI4320 [15]; [20],0.37*
same,"FIC, catechol",P. mirabilis HI4320 [15]; [21],0.25
same,"FIC, gallic acid",P. mirabilis HI4320 [15]; [22],0.13
same,FICI,P. mirabilis HI4320 [15]; [23],1.5
same,FIC of compound,P. mirabilis HI4320 [15]; [24],1
same,FIC of ciprofloxacin,E. coli CFT073 [16]; [18],1
same,"FICI, catechol",E. coli CFT073 [16]; [19],0.5*
same,"FICI, gallic acid",E. coli CFT073 [16]; [20],0.5*
same,"FIC, catechol",E. coli CFT073 [16]; [21],0.25
same,"FIC, gallic acid",E. coli CFT073 [16]; [22],0.25
same,FICI,E. coli CFT073 [16]; [23],2
same,FIC of compound,E. coli CFT073 [16]; [24],1
same,FIC of ciprofloxacin,P. aeruginosa PAO1 [11]; [18],0.5
same,"FICI, catechol",P. aeruginosa PAO1 [11]; [19],0.37*
same,"FICI, gallic acid",P. aeruginosa PAO1 [11]; [20],0.37*
same,"FIC, catechol",P. aeruginosa PAO1 [11]; [21],0.25
same,"FIC, gallic acid",P. aeruginosa PAO1 [11]; [22],0.13
same,FICI,P. aeruginosa PAO1 [11]; [23],1.01
same,FIC of compound,P. aeruginosa PAO1 [11]; [24],0.51
same,FIC of ciprofloxacin,P. aeruginosa PA14 [12]; [18],1
same,"FICI, catechol",P. aeruginosa PA14 [12]; [19],0.5*
same,"FICI, gallic acid",P. aeruginosa PA14 [12]; [20],0.5*
same,"FIC, catechol",P. aeruginosa PA14 [12]; [21],0.25
same,"FIC, gallic acid",P. aeruginosa PA14 [12]; [22],0.25
same,FICI,P. aeruginosa PA14 [12]; [23],2
same,FIC of compound,P. aeruginosa PA14 [12]; [24],1
